From a melting point compilation (Tetko et al.; mined from patent text by program, amines drawn as free bases though some values may be those of a salt) come the findings set out here.

Structures are written as SMILES. Bounds are passed on as bounds.

Consider `COCCOc1ccc(CCCO)c(Oc2ncc(C(F)(F)F)cc2Cl)c1`, for which the melting point (in general, the temperature, or range, at which the solid turns liquid) lay in the range of 70 to 71 °C.

`CCCCOC(=O)NC1CCN(c2c(F)cc3c(=O)c(C(=O)O)cn(C4CC4)c3c2F)C1` (centres undefined) displayed a melting point of 228 to 230 °C.

`O=C(O)CC(C(=O)NC(CO)Cc1ccccc1)C1(c2ccc(-c3ccccc3)cc2)C=CNC1` (centres undefined) gave a melting point of 151 to 154 °C.

In turn, `Cc1cccc(NC(=O)NCC(=O)N(CC(=O)N2CCCCCC2)c2ccccc2)c1` gave a melting point of 245 °C.

In turn, `C[C@@H]1C(=O)C[C@H]2C[C@@H]1OO[C@@]2(C)/C=C\c1ccc(C(C)(C)C)cc1` registered a melting point of 101 °C.

As for `OC[C@@H](O)CCc1ccccc1`, the melting point was 34 to 36 °C.

The compound `CC(c1ccc(CCNC(=O)c2ccc(Br)cc2)cc1)N1CCCC1` (centres undefined) came in with a melting point of 124 to 126 °C.

The compound `CC(C)(Cc1ccccc1)C(=O)Cn1cncn1` displayed a melting point of 79 °C.

As for `CN1CCCC(CC(C#N)(Cn2cncn2)c2ccc(Cl)cc2Cl)C1` (centres undefined), the melting point was in the range of 125 to 126 °C.

Compound `CC(=O)C1CCC2C3CCC4CC5OC5CC4(C)C3C(OC(=O)CCl)CC12C` (centres undefined) displayed a melting point of 163 to 169 °C.

As for `CC(C)(C)c1cc(Cc2cc(C(C)(C)C)cc(C(C)(C)C)c2O)c(O)c(-n2nc3ccccc3n2)c1`, the melting point was determined as 208 °C.

On to `CNC(=NCCSCc1cc(CN(C)C)ccn1)NC#N`, for which the melting point was 114 to 116 °C.

`Nc1nc(N)c2c(ccc3c2ccn3-c2ccncc2)n1` returned a melting point of 328 to 330 °C.

Compound `CS(=O)c1ccc(-c2nc(-c3ccc(F)cc3)c(-c3ccncc3)[nH]2)cc1` (centres undefined) returned a melting point of 250 to 252 °C.

As for `O=C(O)c1ccc(COc2ccc(-c3ccc(-c4c(Cc5ccccc5)oc5ccccc45)cc3)cc2)cc1`, the melting point was in the range of 208 to 210 °C.

Turning to `CCCOc1ccc2c(c1)C(=O)C=C2c1ccc2c(c1)OCO2`, the melting point was 90 to 93 °C.

For the compound `CCOC(=O)C(c1ccc(Nc2nc(-c3cccc(NC(=O)c4cc5c(s4)CCCCC5)c3C)cn(C)c2=O)cc1)N1CCN(CC)CC1` (centres undefined), the melting point is 168 to 170 °C.

`CC1(C)CC(=O)CC(C)(C)N1C#N` registered a melting point of 75 to 76 °C.

In turn, `CCSc1cc(CC=NOC)ccc1N(CC)c1nc(C)cc(C)n1` registered a melting point of 77 to 78 °C.

The compound `COc1ccc(C2=NNC(=O)CC2)cc1N` yielded a melting point of 218 to 220 °C.

`Cc1ccc2[nH]c(=O)n(C(C)(C)C(=O)O)c(=O)c2c1` displayed a melting point of 268 to 271 °C.

In turn, `CCOC(=O)c1c(CN(CC)CC)nc2sc3c(c2c1-c1ccc(Cl)cc1)CCNC3` gave a melting point of 104 to 106 °C.

The compound `FC(F)(F)c1cccc(-c2ccnc3nccn23)c1` displayed a melting point of 160 to 163 °C.

`COc1cc(C(C)=NN)ccc1OCCCN1CCC(c2noc3cc(F)ccc23)CC1` registered a melting point of 106 to 108 °C.

For `N#CC(=NOS(=O)(=O)c1ccc(O)cc1)c1ccccc1`, the melting point was found to be 148 °C.

`CCOC(=O)Cc1ccc(NC(=O)C(COc2ccc(Cl)cc2)NS(=O)(=O)c2ccc(Br)cc2)cc1` (racemic) gave a melting point of 154 to 156 °C.

In turn, `CCOc1cc(C(=O)OC)nc2cc(OC)c3ncccc3c12` returned a melting point of 188 to 190 °C.

In the case of `C=CS(=O)(=O)N1CCC(N2N=C(c3ccc(OC)c(OC)c3)[C@H]3CC=CC[C@H]3C2=O)CC1`, the melting point was in the range of 89 to 90 °C.

Compound `COc1cc(Nc2c(C#N)cnc3cc(-c4ccc(CO)cc4)sc23)c(Cl)cc1Cl` returned a melting point of 239 to 240 °C.

On to `O=c1c2c(CC3CCCCC3)n[nH]c2c2cccnc2n1-c1ccccc1`, for which the melting point was in the range of 280 to 281 °C.

For the compound `N#Cc1cc(C(F)(F)F)[nH]c1-c1ccc(Cl)c(Cl)c1`, the melting point lay in the range of 230 to 232 °C.

With `NC(=O)n1cc(-c2ccc(Oc3ccc(N)cc3)cc2)cn1`, the melting point lay in the range of 158 to 160 °C.

`CNc1nc(-c2cccc(NC(=O)c3ccccc3)c2)c2cc(O)c(OC)cc2n1` showed a melting point of 145 to 147 °C.

The compound `N#Cc1c[nH]c(-c2ccccc2F)c1` displayed a melting point of 158 to 160 °C.

`O=C(Cl)c1c(Br)c(Br)c([N+](=O)[O-])c2c1OCCO2` gave a melting point of 215 °C.

With `COc1ccc2sc(S(N)(=O)=O)cc2c1`, the melting point was in the range of 125 to 127 °C.

Compound `Cc1ccc2c(c1)c(=O)oc(=O)n2Cc1ccc(F)cc1` displayed a melting point of 153 °C.

With `CCOC(=O)c1c(OC)nc2c(C)cc(C)cc2c1-c1ccccc1Cl`, the melting point was 135 to 136 °C.

In turn, `CCOC(=O)NC(=NCCCc1c[nH]cn1)NCCSCc1cccnc1` displayed a melting point of 90 to 91 °C.

For `O=Cc1cc2c3ccccc3ccc2c2sccc12`, the melting point worked out at 162 °C.

Regarding `O=S(=O)(c1c[nH]c(Br)c1-c1ccc(Cl)cc1)C(F)(F)F`, the melting point lay in the range of 163 to 165 °C.

The compound `Nc1nc2c(ncn2OCC(O)CCP(=O)(O)O)c(=O)[nH]1` (centres undefined) yielded a melting point greater than 315 °C.

`CCOc1ccc(F)c(N=Cc2cnc(SC)nc2NC2CCCC2)c1F` registered a melting point of 136 to 141 °C.

`CCCc1c(OCCOCCC(=O)OC)ccc(C(C)=O)c1O`: the melting point fell in the range of 48 to 50 °C.

In the case of `O=C1C=CC(O)(c2cc3ccccc3s2)C=C1`, the melting point was 185 to 188 °C.

Consider `CC(=O)OC1CSC(Oc2cccc(Cl)n2)C(OC(C)=O)C1OC(C)=O` (centres undefined), for which the melting point is 127 °C.

As to `CCC(=O)Nc1ccc(OCc2nc3ccccc3s2)cc1`, the melting point was 182 °C.

Take `CC(C)(N)CNC(=O)CNC(=O)Cc1ccccc1`: the melting point was 150 to 155 °C.

In the case of `COC(=O)c1c(C(C)(C)O)nc(C(C)OC)n1Cc1ccc(-c2ccccc2-c2nnnn2C(c2ccccc2)(c2ccccc2)c2ccccc2)cc1` (centres undefined), the melting point lay in the range of 131 to 133 °C.

`COC(=O)C1=C(C)NC(C)=C(C(=O)OCCCCCCCCCCO)[C@H]1c1cccc2nonc12` yielded a melting point of 120 °C.

`O=C(Nc1cccc(-c2nnn[nH]2)c1)C(=O)N1CCC(Cc2ccc(F)cc2)CC1` returned a melting point of 107 to 112 °C.

Turning to `CCCCS(=O)Cc1ccc(CCl)cc1` (centres undefined), the melting point fell in the range of 112 to 113 °C.

In turn, `Cc1nn(C)c2c1N=C(C1CC1)N1CC(C)N=C21` (centres undefined) registered a melting point of 107 to 110 °C.

The compound `COC(=O)C(C(=O)OC)c1ccc2c(c1)C(=O)c1cc3ccccc3cc1C2=O` gave a melting point of 211 to 215 °C.

Take `C/C(=C\c1ccc(C(=O)O)cc1)c1ccc2c(c1)C(C)(C)CC(=O)C2(C)C`: the melting point was 249 to 250 °C.

`COc1ccc(CNc2ccc(C(=O)Nc3cccc4cc(C(=O)Nc5cc(C(C)(C)C)cc(NS(C)(=O)=O)c5OC)sc34)cn2)cc1` gave a melting point of 137 to 139 °C.

As to `COc1ccc2c(c1)C(=NO)C(=O)N2c1ccc(F)cc1`, the melting point lay within 217 to 219 °C.

In the case of `N#CCCNC(=O)c1cccc(-c2ccc3c(c2)N(c2cc(Cl)cc(Cl)c2)CC3)c1`, the melting point fell in the range of 196 to 197 °C.

Compound `COC(=O)C=CC(=S)c1ccc(-c2ccccc2)cc1` returned a melting point of 85 to 86.5 °C.

The compound `CCc1c(CC(=O)O)c(C)nc(C)c1Cc1nc2c(F)c(F)cc(F)c2s1` registered a melting point of 193 to 195 °C.

In turn, `Oc1ccnc(OC(F)F)c1` showed a melting point of 88.6 to 89.8 °C.

The compound `CC(Oc1cccc(C=Cc2ccc3ccc(Cl)cc3n2)c1)C(N)=O` (single isomer, unassigned; (-)) displayed a melting point of 195 to 197 °C.

`CCN(CC)C(=O)Nc1cccc(Cl)c1` gave a melting point of 81 to 82 °C.

`COc1ccc(-c2nc(-c3cccn3C)[nH]c2-c2ccc(OC)cc2)cc1` yielded a melting point of 110 °C.

`COc1ccccc1C(Nc1ccncc1)c1ccccc1` (centres undefined): the melting point was 143 to 145 °C.

The compound `CNC1=Nc2sc(Cl)cc2C(c2ccccc2Cl)=NC1` displayed a melting point of 259 to 262 °C.

Compound `CCOC(=O)c1c[nH]nc1NCc1ccccc1` displayed a melting point of 99 to 100 °C.

Take `COC1(c2cc(OCc3ccc4c(c3)OCCC4=NO)nc(N)n2)CCOCC1`: the melting point lay within 224 to 228 °C.

Turning to `CN1CCc2c(c(P(=O)(O)O)cc3[nH]c(=O)c(=O)[nH]c23)C1`, the melting point was greater than 325 °C.

For `O=C(O)c1ccc(NCCc2ccc(F)cc2)cc1`, the melting point lay in the range of 161 to 163 °C.

For the compound `Cc1noc(NS(=O)(=O)c2ccc(I)cc2)c1Br`, the melting point was in the range of 166 to 173 °C.

For `O=C1Nc2ccccc2C12CCC2`, the melting point lay in the range of 140 to 145 °C.

`N#Cc1ccc2nc3cscc3c(=O)n2c1`: the melting point was in the range of 233 to 234 °C.

In turn, `O=C(O)c1cc2cc(Cl)c(Cl)cc2nc1N[C@H](Cc1c[nH]c2ccccc12)C(=O)O` displayed a melting point greater than 250 °C.

The compound `COC(=O)/C=C/C(=O)/C=C/c1ccc(OC)cc1` returned a melting point of 54 to 55 °C.

In turn, `COc1ccccc1NC(=O)Nc1nc(Nc2ccccc2-c2ccccc2)nc(N2Cc3ccccc3CC2C(=O)O)n1` (centres undefined) displayed a melting point of 138 to 145 °C.

For the compound `COc1ccc(S(=O)(=O)F)nn1`, the melting point fell in the range of 87 to 88 °C.

Consider `CC1(C)Oc2ccsc2C(N2CCCCC2=O)C1O` (centres undefined), for which the melting point fell in the range of 151 to 152 °C.

For `CCC(Oc1cccc(C(F)(F)F)c1)C(=O)OC1CC(O)C=C2C=CC(C)C(CCC3CC(O)CC(=O)O3)C21` (mixture of isomers), the melting point lay within 135 to 137 °C.

On to `COc1ccc2c(c1)c(Cc1nc(-c3ccc(F)cc3)cs1)c(C)n2C(=O)c1ccc(Cl)cc1`, for which the melting point fell in the range of 172 to 174 °C.

`Cc1nc2cc(Br)ccc2s1` yielded a melting point of 84 to 85 °C.

For `O=C(CCl)NN1CCOC(c2ccccc2)(c2ccccc2)CC1`, the melting point lay within 150 to 152 °C.

Consider `Cc1ccccc1Nc1c(C(=O)C(C)C)cnc2c(O)cccc12`, for which the melting point lay within 131 to 133 °C.

`CCN(CC)C(=O)C=Cc1cc([N+](=O)[O-])ccc1C` showed a melting point of 61.9 °C.

For the compound `CCCCC(=O)c1c(CSc2nccn2C)nc2cc(OC)c(OC)cc2c1-c1ccc(OC)c(OC)c1`, the melting point lay within 125 to 127 °C.

In turn, `O=C1COc2cc(C(O)(C(F)(F)F)C(F)(F)F)ccc2N1` displayed a melting point of 224 to 225 °C.

As for `CC(C)n1nc(-c2sc(NC(C)(C)C)nc2-c2ccccc2)ccc1=O`, the melting point lay in the range of 189 to 190 °C.

In turn, `COc1cc(N)c(Cl)cc1C(=O)NCCC1CN(Cc2ccccc2)CCO1` (centres undefined) returned a melting point of 68 to 72 °C.

On to `NC(=O)OC(CC(=NNC(N)=S)c1ccccc1)c1ccccc1` (centres undefined), for which the melting point lay in the range of 149 to 150 °C.
